# Assay results from patent US4338330A, “Benzimidazole derivatives, their use, and compositions containing these derivatives” (Continental Pharma, priority 1979, dated 1982).
# Read-outs that look alike come from different tables or passages of the source.
# How the values were obtained:
# [1] = test system: chronotropic response to noradrenaline of isolated guinea pig auricles; test: β-lytic effect on the chronotropic response to noradrenaline of isolated auricles
# Method: (§1) The β-lytic effect was searched on the chronotropic response to noradrenaline of isolated guinea pig auricles. Auricles were incubated for 20 minutes in a Tyrode solution at 29° C. in the presence of the substance to be tested at the concentration of 10^-6 M. A positive (+) or negative (-) chronotrope effect of the substance was noted using the following scores:
# Then, the chronotrope effect of cumulative increasing concentrations of noradrenaline was recorded. The pD2 (-log CE50) value was calculated. A score of β-lytic activity of the substance was given as follows:
# If the score at concentration of 10^-6 M was 3 or 4, the effect of the substance was examined at concentration of 10^-7 M and a score was recorded according to the same procedure.
# [2] = test system: guinea pig ileum contractions induced by acetylcholine; test: Antispasmodic activity against ileum contractions induced by acetylcholine
# Method: (§2) The antispasmodic activity of the studied substances was examined against guinea pig ileum contractions induced by histamine and acetylcholine.
# (§3) These experiences allow to make it obvious an antihistaminic, anticholinergic or musculotrope activity. The response to the contracting agent (sub-maximum concentration) is obtained every 5 minutes before and after injection of increasing concentrations of tested products (10^-7 M to 10^-4 M). The inhibition percentage under the influence of tested products is calculated and the theoretical concentration giving 50% of inhibition is graphically determined for each experience. These values are expressed in -log CI50 (M).
# [3] = test system: guinea pig ileum contractions induced by histamine; test: Antispasmodic activity against ileum contractions induced by histamine
# Method: as §2, §3
# [4] = LD50 in mice, oral (Lichtfield and Wilcoxon method); type: in vivo
# Method: LD50 were determined according to the Lichtfield and Wilcoxon method (J. Pharmacol. Exp. Ther. 96, 99, 1949) and expressed in mg/kg. The products were administered to mice orally.
# [5] = Antihypertensive activity, oral, unanesthetized spontaneously hypertensive rats; type: in vivo
# Method: […] Only rats having a systolic pressure of 180 to 220 mm Hg are used. Two rats are used by product. The treatments are administered without the knowledge of the person making the measure.
# The antihypertensive effects were recorded according to a score followed by an index. The scoring system is as follows.
# The index is calculated by multiplying the systolic pressure difference (cmHg) measured every 30 minutes after the treatment, by a coefficient of 1 to 6 corresponding to times of 30 to 180 minutes.
# [6] = test system: isolated guinea pig auricles; test: Chronotrope effect of the substance on isolated auricles; settings: 10^-6 M, 20 minutes, Tyrode, 29° C.
# Method: as §1, with “scores: […]” for “scores:”
# [7] = mouse, in vivo, po, read-out: LD50
# [8] = 60 mg/kg oral, spontaneously hypertensive rats
# [9] = 60 mg/kg oral, systolic pressure difference (cmHg) every 30 min multiplied by time coefficient 1 to 6
SMILES,β-lytic effect (score) ([1]; 10^-6 M),β-lytic effect (score) ([1]; 10^-7 M),"Antispasmodic activity, Ac. Chol. (-log CI50 (M)) [2]","Antispasmodic activity, Hist. (-log CI50 (M)) [3]","Antihypertensive activity (score) [5, 8]",Chronotrope effect (score) [6],also measured
"CC(C)(C)NCC(O)COc1ccc(-c2nc3ccccc3[nH]2)cc1 (stereo not shown) [Compound 4, 2-[4-(3-t-butylamino-2-hydroxypropoxy)phenyl]benzimidazole]",3 (if 6.00≥pD2 ≥5.51),1 (if 6.80≥pD2 ≥6.41),5.72 -log CI50 (M),5.64 -log CI50 (M),++++ (reduction>50 mm Hg),0 (if the frequency modification was comprised between +6 and -6),"LD50 [4, 7]: 1420 mg/kg; Antihypertensive activity (index) [5, 9]: 192"
"CC(C)NCC(O)COc1ccc(-c2nc3ccccc3[nH]2)cc1 (stereo not shown) [Compound 8, 2-[4-(3-isopropylamino-2-hydroxypropoxy)phenyl]benzimidazole]",4 (if pD2 ≤5.50),,4.95 -log CI50 (M),4.65 -log CI50 (M),,0 (if the frequency modification was comprised between +6 and -6),"LD50 [4]: > 2248 mg/kg; Antihypertensive activity (index) ([5]; at 10 mg, oral): 66; Antihypertensive activity (score) ([5]; at 10 mg, oral): +++ (reduction of 30 to 50 mm Hg)"
"CC(C)NCC(O)COc1ccc(-c2nc3ccccc3[nH]2)cc1 (stereo not shown) [Compound 9, 2-[4-(3-isopropylamino-2-hydroxypropoxy)phenyl]benzimidazole]",4 (if pD2 ≤5.50),,4.60 -log CI50 (M),4.75 -log CI50 (M),,0 (if the frequency modification was comprised between +6 and -6),"LD50 [4]: 2620 mg/kg; Antihypertensive activity (index) ([5]; at 10 mg, oral): 68; Antihypertensive activity (score) ([5]; at 10 mg, oral): +++ (reduction of 30 to 50 mm Hg)"
"CC(C)NCC(O)COc1ccc(-c2nc3ccccc3[nH]2)cc1 (stereo not shown) [Compound 10, 2-[4-(3-isopropylamino-2-hydroxypropoxy)phenyl]benzimidazole]",4 (if pD2 ≤5.50),,4.95 -log CI50 (M),4.31 -log CI50 (M),,0 (if the frequency modification was comprised between +6 and -6),"LD50 [4]: 1960 mg/kg; Antihypertensive activity (index) ([5]; at 10 mg, oral): 61; Antihypertensive activity (score) ([5]; at 10 mg, oral): +++ (reduction of 30 to 50 mm Hg)"
"CC(C)NCC(O)COc1ccc(-c2nc3ccccc3[nH]2)cc1 (stereo not shown) [Compound 11, 2-[4-(3-isopropylamino-2-hydroxypropoxy)phenyl]benzimidazole (dihydrated glucuronate)]",4 (if pD2 ≤5.50),,4.30 -log CI50 (M),4.52 -log CI50 (M),,1,"LD50 [4]: 1494 mg/kg; Antihypertensive activity (index) ([5]; at 10 mg, oral): 51; Antihypertensive activity (score) ([5]; at 10 mg, oral): +++ (reduction of 30 to 50 mm Hg)"
"CC(C)NCC(O)COc1ccc(-c2nc3ccccc3[nH]2)cc1 (stereo not shown) [Compound 12, 2-[4-(3-isopropylamino-2-hydroxypropoxy)phenyl]benzimidazole]",4 (if pD2 ≤5.50),2 (if 6.40≥pD2 ≥6.01),4.75 -log CI50 (M),4.60 -log CI50 (M),++++ (reduction>50 mm Hg),0 (if the frequency modification was comprised between +6 and -6),"LD50 [4]: 1950 mg/kg; Antihypertensive activity (index) [5, 9]: 160"
CC(CCc1ccc2c(c1)OCO2)NCC(O)COc1ccc(-c2nc3ccccc3[nH]2)cc1 (stereo not shown) [Compound 13],2 (if 6.40≥pD2 ≥6.01),,6.15 -log CI50 (M),6.46 -log CI50 (M),0 (reduction <10 mm Hg),0 (if the frequency modification was comprised between +6 and -6),"LD50 [4, 7]: > 1000 mg/kg"
CC(C)NCC(O)COc1ccc(-c2nc3c([N+](=O)[O-])cccc3[nH]2)cc1 (stereo not shown) [Compound 17],3 (if 6.00≥pD2 ≥5.51),2 (if 6.40≥pD2 ≥6.01),5.60 -log CI50 (M),5.15 -log CI50 (M),++++ (reduction>50 mm Hg),0 (if the frequency modification was comprised between +6 and -6),"Antihypertensive activity (index) [5, 9]: 89"
OC(CNC1CCCCC1)COc1ccc(-c2nc3ccccc3[nH]2)cc1 (stereo not shown) [Compound 18],1 (if 6.80≥pD2 ≥6.41),,5.21 -log CI50 (M),5.45 -log CI50 (M),+++ (reduction of 30 to 50 mm Hg),0 (if the frequency modification was comprised between +6 and -6),"Antihypertensive activity (index) [5, 9]: 83"
COc1ccc2[nH]c(-c3ccc(OCC(O)CNC(C)C)cc3)nc2c1 (stereo not shown) [Compound 19],4 (if pD2 ≤5.50),,4.70 -log CI50 (M),4.99 -log CI50 (M),+++ (reduction of 30 to 50 mm Hg),1,"Antihypertensive activity (index) [5, 9]: 59"
Cc1cc(-c2nc3ccccc3[nH]2)ccc1OCC(O)CNC(C)C (stereo not shown) [Compound 20],4 (if pD2 ≤5.50),1 (if 6.80≥pD2 ≥6.41),,,0 (reduction <10 mm Hg),0 (if the frequency modification was comprised between +6 and -6),
OC(CNCCOc1ccc(Cl)cc1)COc1ccc(-c2nc3ccccc3[nH]2)cc1 (stereo not shown) [Compound 21],,,,,0 (reduction <10 mm Hg),,
Cc1ccc(OCCNCC(O)COc2ccc(-c3nc4ccccc4[nH]3)cc2)cc1 (stereo not shown) [Compound 22],2 (if 6.40≥pD2 ≥6.01),,"5,35 -log CI50 (M)","5,65 -log CI50 (M)",0 (reduction <10 mm Hg),0 (if the frequency modification was comprised between +6 and -6),
"CC(C)NCC(O)COc1ccc(-c2nc3cc([N+](=O)[O-])ccc3[nH]2)cc1 (stereo not shown) [Compound 24, 2-[4-(3-isopropylamino-2-hydroxypropoxy)-phenyl]-5(6)nitrobenzimidazole]",3 (if 6.00≥pD2 ≥5.51),2 (if 6.40≥pD2 ≥6.01),"5,45 -log CI50 (M)","5,50 -log CI50 (M)",,0 (if the frequency modification was comprised between +6 and -6),
"COc1cc(-c2nc3ccccc3[nH]2)ccc1OCC(O)CNC(C)C (stereo not shown) [Compound 25, 2-[4-(3-isopropylamino-2-hydroxypropoxy)-3-methoxyphenyl]benzimidazole]",3 (if 6.00≥pD2 ≥5.51),1 (if 6.80≥pD2 ≥6.41),,,,0 (if the frequency modification was comprised between +6 and -6),
"CC(C)C(=O)NCCNCC(O)COc1ccc(-c2nc3ccccc3[nH]2)cc1 (stereo not shown) [Compound 26, 2-{4-[3-(2-isobutyramidoethyl)amino-2-hydroxypropoxy]phenyl}benzimidazole]",4 (if pD2 ≤5.50),3 (if 6.00≥pD2 ≥5.51),,,,0 (if the frequency modification was comprised between +6 and -6),
"O=C(Cc1ccccc1)NCCNCC(O)COc1ccc(-c2nc3ccccc3[nH]2)cc1 (stereo not shown) [Compound 27, 2-{4-[3-(2-phenylacetamidoethyl)amino-2-hydroxypropoxy]phenyl}benzimidazole]",4 (if pD2 ≤5.50),3 (if 6.00≥pD2 ≥5.51),,,,0 (if the frequency modification was comprised between +6 and -6),
"C[C@](N)(Cc1ccc(O)c(O)c1)C(=O)O [alpha-methyldopa, reference compound]",,,,,,,Antihypertensive activity (index) ([5]; 100 mg/kg oral): 47; Antihypertensive activity (score) ([5]; 100 mg/kg oral): +++ (reduction of 30 to 50 mm Hg)
"COC(=O)[C@H]1[C@H]2C[C@@H]3c4[nH]c5cc(OC)ccc5c4CCN3C[C@H]2C[C@@H](OC(=O)c2cc(OC)c(OC)c(OC)c2)[C@@H]1OC [reserpine, reference compound]",,,,,,,Antihypertensive activity (index) ([5]; 3 mg/kg oral): 53; Antihypertensive activity (score) ([5]; 3 mg/kg oral): +++ (reduction of 30 to 50 mm Hg)
